Measurements as given in US9527885B2, “Hepatitis C virus inhibitors” (BRISTOL-MYERS SQUIBB COMPANY, priority 2011, dated 2016).
Where two headings read alike, the source gives them in different places.

Columns and labels:
[1] = tested on: HCV genotype 1a (H77 strain) replicon in HUH-7 cells; test: HCV replicon luciferase reporter assay, genotype 1a; assay type: cell-based; conditions: Hepatitis C virus, Huh-7, 72 h, 3 days incubation, read-out: LE_1a (EC50, range)
Excerpt: (§1) An HCV replicon whole cell system was established as described by Lohmann V, Korner F, Koch J, Herian U, Theilmann L, Bartenschlager R., Science 285(5424):110-3 (1999) and modified to introduce a luciferase reporter, as first described by Krieger et al (Krieger N, Lohmann V, and Bartenschlager R, J. Virol. 75(10):4614-4624 (2001)). CDNA encoding a humanized form of the Renilla luciferase gene and a linker sequence fused directly to the 3′-end of the luciferase gene were introduced into the replicon construct using an Asc1 restriction site located in core, directly upstream of the neomycin marker gene. The adaptive mutation at position 1179 (serine to isoleucine) was also introduced (Blight K J, Kolykhalov, A A, Rice, C M, Science 290(5498):1972-1974). A stable cell line constitutively expressing this HCV replicon construct was generated by first linearizing plasmid DNAs with ScaI. RNA transcripts were synthesized in vitro using the T7 MegaScript transcription kit (Ambion, Austin, Tex.) according to manufacturer's directions. In vitro transcripts of the cDNA were transfected into the human hepatoma cell line, HUH-7. […] Resulting cell lines were characterized for positive and negative strand RNA production and protein production over time.
A stable HCV replicon luciferase reporter cell line representing the genotype 1a H77 strain (Yanagi M, Purcell R H, Emerson S U, et al. Transcripts from a single full-length cDNA clone of hepatitis C virus are infectious when directly transfected into the liver of a chimpanzee. Proc Natl Acad Sci USA 1997; 94(16):8738-8743) was generated as described previously for the genotype 1b (Con1) replicon luciferase cell line. The replicon construct was modified by introducing mutations were introduced into the genes encoding the NS3 helicase domain (proline replaced by leucine at position 1496) and NS5A (serine to isoleucine at position 2204) to improve replication in cell culture.
(§2) HCV replicon luciferase assays were developed to monitor the inhibitory effects of compounds described in the disclosure on HCV genotypes 1a and 1b viral replication. HUH-7 cells, constitutively expressing the HCV replicon, were grown in Dulbecco's Modified Eagle Media (DMEM) (Gibco-BRL) containing 10% Fetal calf serum (FCS) (Sigma) and 1 mg/mL G418 (Gibco-BRL). Compounds were serially diluted 3 folds in DMSO for a twenty-point titration and subsequently transferred to sterile 384-well tissue-culture treated plates (Corning cat #3571). The plates were then seeded with 50 μL of cells at a density of 3.0×10^3 cells/well in DMEM containing 4% FCS (final DMSO concentration at 0.5%). After 3 days incubation at 37° C., cells were analyzed for Renilla Luciferase activity using the EnduRen as substrate (Promega cat #E6485). The EnduRen substrate was diluted in DMEM and then added to the plates to a final concentration of 7.5 μM. The plates were incubated for 2 hrs at 37° C. and then read immediately for 30 seconds with Viewlux Imager (PerkinElmer) using a luminescence program. To assess cytotoxicity of compounds, CC50 values were generated by multiplexing the EnduRen-containing plates with Cell Titer-Blue (Promega, cat # G8082). Cell-Titer Blue (3 μL) was added to each well and incubated for 8 hrs at 37° C. The fluorescence signal from each well was read, with an excitation wavelength at 525/10 nm and an emission wavelength of 598/10 nm, using the Viewlux Imager.
(§3) The EC50 values for compounds were calculated by using a four-parameter logistic equation: y=A+((B−A)/(1+((C/x)^D))), where A and B denotes minimal and maximal % inhibition, respectively, C is the EC50, D is the hill slope and x represents compound concentration.

[2] = tested on: HCV genotype 1b (Con1) replicon in HUH-7 cells; test: HCV replicon luciferase reporter assay, genotype 1b; assay type: cell-based; conditions: Hepatitis C virus, 72 h, 3 days incubation, read-out: LE_1b (EC50, range)
Excerpt: as §1, with “time. […]” for “time.”
as §2, §3

[3] = HCV genotype 1a replicon luciferase, range class
[4] = HCV genotype 1b replicon luciferase, range class
[5] = HCV genotype 1a replicon luciferase reporter, range class
[6] = HCV genotype 1b replicon luciferase reporter, range class
[7] = HCV genotype 1a replicon luciferase, class symbols
[8] = HCV genotype 1b replicon luciferase, class symbols

C[C@H]1CC/C=C\[C@@H]2C[C@@]2(C(=O)NS(=O)(=O)C2CC2)NC(=O)[C@@H]2C[C@@H](Oc3nccc4c5c(ccc34)OC(F)(F)O5)CN2C(=O)[C@@H](NC(=O)O[C@@H]2C[C@@H]3C[C@@H]3C2)[C@H](C)C1 [Compound 5273, (1R,3r,5S)-bicyclo[3.1.0]hexan-3-yl ((2R,6S,7R,9S,13aS,14aR,16aS,Z)-14a-((cyclopropylsulfonyl)carbamoyl)-2-((2,2-difluoro-[1,3]dioxolo[4,5-f]isoquinolin-6-yl)oxy)-7,9-dimethyl-5,16-dioxo-1,2,3,5,6,7,8,9,10,11,13a,14,14a,15,16,16a-hexadecahydrocyclopropa[e]pyrrolo[1,2-a][1,4]diazacyclopentadecin-6-yl)carbamate] was tested. Which EC50 [1, 3] did it give?
Its EC50 is 4.82 to 103 nM.

What about the EC50 [2, 4] of the same compound?
Its EC50 is 4.82 to 103 nM.

COc1ccc2c(O[C@@H]3C[C@H]4C(=O)N[C@]5(C(=O)NS(=O)(=O)C6(C)CC6)C[C@H]5/C=C\CC[C@H](C)C[C@@H](C)[C@H](NC(=O)OC(C)(C)C(F)(F)F)C(=O)N4C3)nc(N(C)C)cc2c1 [Compound 3116, 1,1,1-trifluoro-2-methylpropan-2-yl ((2R,6S,7R,9S,13aS,14aR,16aS,Z)-2-((3-(dimethylamino)-6-methoxyisoquinolin-1-yl)oxy)-7,9-dimethyl-14a-(((1-methylcyclopropyl)sulfonyl)carbamoyl)-5,16-dioxo-1,2,3,5,6,7,8,9,10,11,13a,14,14a,15,16,16a-hexadecahydrocyclopropa[e]pyrrolo[1,2-a][1,4]diazacyclopentadecin-6-yl)carbamate] was tested. Which EC50 [1, 5] did it give?
The EC50 was 4.82 to 103 nM.

What about the EC50 [2, 6] of the same compound?
Its EC50 is under 5.46 nM.

Which results are given for COc1ccc2c(O[C@@H]3C[C@H]4C(=O)N[C@]5(C(=O)NS(=O)(=O)C6(CF)CC6)C[C@H]5/C=C\CC[C@@H](C)C[C@@H](C)[C@H](NC(=O)OC(C)(C)C(C)(F)F)C(=O)N4C3)nc(N(C)C)cc2c1 [Compound 3125, 3,3-difluoro-2-methylbutan-2-yl ((2R,6S,7R,9R,13aS,14aR,16aS,Z)-2-((3-(dimethylamino)-6-methoxyisoquinolin-1-yl)oxy)-14a-(((1-(fluoromethyl)cyclopropyl)sulfonyl)carbamoyl)-7,9-dimethyl-5,16-dioxo-1,2,3,5,6,7,8,9,10,11,13a,14,14a,15,16,16a-hexadecahydrocyclopropa[e]pyrrolo[1,2-a][1,4]diazacyclopentadecin-6-yl)carbamate]?
EC50 [1, 5]: 4.82 to 103 nM; EC50 [2, 6]: < 5.46 nM

For C[C@@H]1CC/C=C\[C@@H]2C[C@@]2(C(=O)NS(=O)(=O)C2CC2)NC(=O)[C@@H]2C[C@@H](Oc3nccc4ccc(F)cc34)CN2C(=O)[C@@H](NC(=O)OC(C)(C)C(F)(F)F)[C@H](C)C1 [Compound 4072, 1,1,1-trifluoro-2-methylpropan-2-yl (2R,6S,7R,9R,13aS,14aR,16aS,Z)-14a-(cyclopropylsulfonylcarbamoyl)-2-(7-fluoroisoquinolin-1-yloxy)-7,9-dimethyl-5,16-dioxo-1,2,3,5,6,7,8,9,10,11,13a,14,14a,15,16,16a-hexadecahydrocyclopropa[e]pyrrolo[1,2-a][1,4]diazacyclopentadecin-6-ylcarbamate], which EC50 [1, 7] is on record?
The EC50 was under 5.46 nM.

What about the EC50 [2, 8] of the same compound?
Its EC50 is under 5.46 nM.

C[C@@H]1CC/C=C\[C@@H]2C[C@@]2(C(=O)NS(=O)(=O)C2CC2)NC(=O)[C@@H]2C[C@@H](Oc3ncc(OC(F)F)c4c(Cl)cccc34)CN2C(=O)[C@@H](NC(=O)OC(C)(C)C(F)(F)F)[C@H](C)C1 [Compound 4031, 1,1,1-trifluoro-2-methylpropan-2-yl (2R,6S,7R,9R,13aS,14aR,16aS,Z)-2-(5-chloro-4-(difluoromethoxy)isoquinolin-1-yloxy)-14a-(cyclopropylsulfonylcarbamoyl)-7,9-dimethyl-5,16-dioxo-1,2,3,5,6,7,8,9,10,11,13a,14,14a,15,16,16a-hexadecahydrocyclopropa[e]pyrrolo[1,2-a][1,4]diazacyclopentadecin-6-ylcarbamate] was tested. Which EC50 [1, 7] did it give?
Its EC50 is under 5.46 nM.

What about the EC50 [2, 8] of the same compound?
Its EC50 is under 5.46 nM.

How did the EC50 [1, 7] turn out when C[C@@H]1CC/C=C\[C@@H]2C[C@@]2(C(=O)NS(=O)(=O)C2CC2)NC(=O)[C@@H]2C[C@@H](Oc3ncc(OCC4CC4)c4ccccc34)CN2C(=O)[C@@H](NC(=O)OC(C)(C)C(F)(F)F)[C@H](C)C1 [Compound 4030, 1,1,1-trifluoro-2-methylpropan-2-yl (2R,6S,7R,9R,13aS,14aR,16aS,Z)-2-(4-(cyclopropylmethoxy)isoquinolin-1-yloxy)-14a-(cyclopropylsulfonylcarbamoyl)-7,9-dimethyl-5,16-dioxo-1,2,3,5,6,7,8,9,10,11,13a,14,14a,15,16,16a-hexadecahydrocyclopropa[e]pyrrolo[1,2-a][1,4]diazacyclopentadecin-6-ylcarbamate] was run?
The EC50 was under 5.46 nM.

What about the EC50 [2, 8] of the same compound?
Its EC50 is under 5.46 nM.

How did the EC50 [1, 3] turn out when COc1ccc2c(O[C@@H]3C[C@H]4C(=O)N[C@]5(C(=O)NS(=O)(=O)C6(C)CC6)C[C@H]5/C=C\CC[C@H](C)C[C@@H](C)[C@H](NC(=O)O[C@@H]5C[C@@H]6C[C@@H]6C5)C(=O)N4C3)nc(-c3ccc(OC(C)C)nc3)cc2c1 [Compound 5228, (1R,3r,5S)-bicyclo[3.1.0]hexan-3-yl ((2R,6S,7R,9S,13aS,14aR,16aS,Z)-2-((3-(6-isopropoxypyridin-3-yl)-6-methoxyisoquinolin-1-yl)oxy)-7,9-dimethyl-14a-(((1-methylcyclopropyl)sulfonyl)carbamoyl)-5,16-dioxo-1,2,3,5,6,7,8,9,10,11,13a,14,14a,15,16,16a-hexadecahydrocyclopropa[e]pyrrolo[1,2-a][1,4]diazacyclopentadecin-6-yl)carbamate] was run?
The EC50 was 4.82 to 103 nM.

And the EC50 [2, 4]?
Its EC50 is under 5.46 nM.

With COc1ccc2c(O[C@@H]3C[C@H]4C(=O)N[C@]5(C(=O)NS(=O)(=O)C6(C)CC6)C[C@H]5/C=C\CC[C@@H](C)C[C@@H](C)[C@H](NC(=O)O[C@@H]5C[C@@H]6C[C@@H]6C5)C(=O)N4C3)nc(-c3ccc(OC(C)C)nc3)cc2c1 [Compound 5229, (1R,3r,5S)-bicyclo[3.1.0]hexan-3-yl ((2R,6S,7R,9R,13aS,14aR,16aS,Z)-2-((3-(6-isopropoxypyridin-3-yl)-6-methoxyisoquinolin-1-yl)oxy)-7,9-dimethyl-14a-(((1-methylcyclopropyl)sulfonyl)carbamoyl)-5,16-dioxo-1,2,3,5,6,7,8,9,10,11,13a,14,14a,15,16,16a-hexadecahydrocyclopropa[e]pyrrolo[1,2-a][1,4]diazacyclopentadecin-6-yl)carbamate] as the compound, how does the EC50 [1, 3] read?
The EC50 was under 5.46 nM.

What about the EC50 [2, 4] of the same compound?
The EC50 was under 5.46 nM.
